Target: T1, a4b7 integrin interaction with MadCAM-1 (Homo sapiens, UniProt P13612+P26010)
T1 construct: capture of a4b7 integrin expressing cells, RPMI8866; endogenous in cells; host or cells: RPMI8866
T1 sequence (P13612 34-1032): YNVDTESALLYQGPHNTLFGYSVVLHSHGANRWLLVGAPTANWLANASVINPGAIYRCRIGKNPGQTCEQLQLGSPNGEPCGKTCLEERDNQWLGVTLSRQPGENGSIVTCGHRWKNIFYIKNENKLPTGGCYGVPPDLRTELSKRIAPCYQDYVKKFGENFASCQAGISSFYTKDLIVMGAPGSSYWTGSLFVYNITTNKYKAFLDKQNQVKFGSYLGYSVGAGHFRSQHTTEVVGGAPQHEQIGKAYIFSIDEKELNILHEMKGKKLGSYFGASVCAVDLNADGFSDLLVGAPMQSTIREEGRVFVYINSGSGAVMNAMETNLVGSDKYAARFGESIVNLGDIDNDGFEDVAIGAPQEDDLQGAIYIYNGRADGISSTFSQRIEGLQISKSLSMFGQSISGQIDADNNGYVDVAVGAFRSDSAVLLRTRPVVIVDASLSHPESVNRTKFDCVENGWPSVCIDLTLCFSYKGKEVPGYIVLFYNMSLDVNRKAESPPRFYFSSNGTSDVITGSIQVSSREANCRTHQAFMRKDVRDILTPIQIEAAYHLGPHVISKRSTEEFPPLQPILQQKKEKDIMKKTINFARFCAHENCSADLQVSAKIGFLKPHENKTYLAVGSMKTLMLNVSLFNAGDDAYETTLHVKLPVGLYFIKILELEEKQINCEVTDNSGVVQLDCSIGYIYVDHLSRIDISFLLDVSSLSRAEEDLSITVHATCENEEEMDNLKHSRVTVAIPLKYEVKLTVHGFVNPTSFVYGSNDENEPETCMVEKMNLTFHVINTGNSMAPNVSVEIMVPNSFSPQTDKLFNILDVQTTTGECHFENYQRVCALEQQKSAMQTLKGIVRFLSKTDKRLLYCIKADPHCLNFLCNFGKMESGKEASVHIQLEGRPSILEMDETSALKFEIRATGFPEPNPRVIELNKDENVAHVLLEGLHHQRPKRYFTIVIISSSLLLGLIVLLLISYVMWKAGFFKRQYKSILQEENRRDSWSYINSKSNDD
T1 sequence (P26010 20-798): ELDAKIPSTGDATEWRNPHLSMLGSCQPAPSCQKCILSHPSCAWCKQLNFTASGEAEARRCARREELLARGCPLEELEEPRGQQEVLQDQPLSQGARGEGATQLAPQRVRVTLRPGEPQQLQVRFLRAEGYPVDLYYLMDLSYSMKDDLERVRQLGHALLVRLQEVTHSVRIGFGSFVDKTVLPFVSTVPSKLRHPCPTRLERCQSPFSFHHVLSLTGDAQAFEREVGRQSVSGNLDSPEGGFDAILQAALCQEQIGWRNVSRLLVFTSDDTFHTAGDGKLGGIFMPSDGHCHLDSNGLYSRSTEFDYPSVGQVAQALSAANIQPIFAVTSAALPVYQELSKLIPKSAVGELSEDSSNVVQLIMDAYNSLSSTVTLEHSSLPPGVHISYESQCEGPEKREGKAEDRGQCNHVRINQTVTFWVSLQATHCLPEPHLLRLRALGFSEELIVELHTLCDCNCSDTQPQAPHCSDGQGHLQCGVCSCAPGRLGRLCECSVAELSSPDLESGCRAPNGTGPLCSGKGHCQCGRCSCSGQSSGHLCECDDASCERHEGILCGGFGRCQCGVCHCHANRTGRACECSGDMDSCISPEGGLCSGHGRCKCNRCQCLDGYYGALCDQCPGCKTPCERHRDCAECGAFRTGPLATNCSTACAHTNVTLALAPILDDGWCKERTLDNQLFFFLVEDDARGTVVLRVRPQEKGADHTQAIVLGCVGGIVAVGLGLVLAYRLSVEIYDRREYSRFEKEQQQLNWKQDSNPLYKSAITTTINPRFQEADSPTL
Test: a4b7 Cell Capture Assay (RPMI8866 cells on MAdCAM-1 Fc coated plates)
Type: cell-based
Conditions: 50% human serum, 1 mM MgCl2, 1 hour incubation, CellTiter-Glo luminescence, read-out: a4B7 cell capture assay RMPI8866-MadCAM EC50
Experimental: The potency of inhibitors in preventing a4b7 integrin interaction with MadCAM-1 was measured by monitoring the capture of a4b7 integrin expressing cells, RPMI8866, on recombinant human MAdCAM-1 Fc chimera protein-coated plates. The protein was a fusion between human MAdCAM-1 (Met1-Gln333, Accession #AAY82472) and human IgG1 (Pro100-Lys330)] (R&D Systems, Catalog #6056-MC). 96-well plates (Thermofisher, Catalog #136102) were coated with the recombinant protein by dispensing 100 μL (1.0 μg/mL) per well. After a quick spin to settle down the coating solution using a plate centrifuge, plates were incubated overnight at 4° C. in a moisture chamber. On Day 2, the plates were washed with PBS using a Bluecatbio Blue®Washer (GentleSpin wash, 3 cycles, pressure=1, volume 150 uL). Blocking solution (1.0% BSA in PBS, Sigma, Catalog #A7979) was then added at 200 uL/well, and the plates were quickly spun to settle down blocking buffer and incubated in cell culture incubator at 37° C. and 5% CO2 for 1 hour. The plates were then washed with 0.1% BSA in PBS using a Bluecatbio Blue®Washer (GentleSpin wash, 3 cycles, pressure=1, volume 150 uL). RPMI8866 cells suspended in assay medium (1 mM MgCl2 25 mM HEPES and 50% human serum, Sigma, Catalog #H4522) at a density of 1.0×10^6 cells/mL were added at 100 uL/well. Each compound evaluated was prepared as a DMSO stock solution. Test compounds were evaluated with a 9-point serial dilution curve (1000, 333.3, 111.1, 55.6, 27.8, 13.9, 6.9, 2.3, and 0.77 nM)) and were added to the plates using a Tecan D.30e Digita dispenser, the dispensed stock is 100 nL and the final DMSO concentration is 0.1%. Potent compounds were re-evaluated at a new 9-point serial dilution curve (100, 33.3, 11.1, 5.6, 2.8, 1.4, 0.69, 0.23, and 0.08 nM). Each titration curves were performed in triplicate on the same plate, and most of compounds were retested in different dates multiple times. The plates were shaken at 300 rpm on orbital plate shaker for 3 minutes to mix the cells and compounds, quickly spun to settle the cells and solution, and incubated in cell culture incubator at 37° C. and 5% CO2. After 1 hour incubation, the unbound cells were washed away with RPMI1640 medium supplemented with 1 mM MgCl2 and 1% BSA) (wash buffer) using a Bluecatbio Blue®Washer (MagbeadsSpin wash, 1 cycle, pressure 1, volume=150 uL). After wash buffer removal, A mixture of wash buffer/CellTiter-Glo® Reagent (Pormega, catalog #G7573) at 1:1 (V/V) was added at volume of 100 uL to each well. The plates were placed in a chamber at 25° C. and incubated for 30 minutes. Luminescence was recorded using a Envision plate reader 2105 according to CellTiter-Glo protocol.
The mean luminescence signals from negative control wells without MadCAM-1 coating and compound treatment (cells only) was defined as 100% binding inhibition, and the mean luminescence signals from positive control wells with MadCAM-1 coating but without compound treatment (MadCAM-1 and cells only) was defined as 0% binding inhibition. The luminescence signals from other compound treated wells were normalized in percentage scale accordingly. The normalized mean % inhibition data were plotted against logarithmic compound concentration in nanomolar and were fitted with 4-parameter logistic model to obtain IC50 for each compound.

Structure (SMILES)	EC50 [nM]
Cc1cc2cc(c1F)[C@H](CC(=O)O)NC(=O)[C@@H](n1cc(CCN3CC(F)(F)C3)c(C(F)(F)F)cc1=O)c1cc(ccc1F)Oc1cccc(C)c1-2 (single isomer, unassigned) [Example 45]	1.8
Cc1cc2cc(c1F)[C@H](CC(=O)O)NC(=O)[C@@H](n1cc(CCN3CC(F)C3)c(C(F)(F)F)cc1=O)c1cc(ccc1Cl)COc1cccc(C)c1-2 (single isomer, unassigned) [Example 58]	7
Cc1cc2cc(c1F)[C@H](CC(=O)O)NC(=O)[C@@H](n1cc(CCN3CC(F)(F)C3)c(C(F)(F)F)cc1=O)c1cc(ccc1F)COc1cccc(C)c1-2 (single isomer, unassigned) [Example 53]	11
Cc1ccc2cc1[C@H](n1cc(CCN3CC(F)C3)c(C(F)(F)F)cc1=O)C(=O)N[C@@H](CC(=O)O)c1cc(cc(C)c1F)-c1c(C)cccc1OC2 (single isomer, unassigned) [Example 74]	20
Cc1cc2cc(c1F)[C@H](CC(=O)O)NC(=O)[C@@H](n1cc(CCCN(C)C)c(C(F)(F)F)cc1=O)c1cc(ccc1F)Oc1cccc(C)c1-2 (relative stereo) [Example 20, [(14R*,17S)-14-{5-[3-(dimethylamino)propyl]-2-oxo-4-(trifluoromethyl)pyridin-1-yl}-12,19-difluoro-3,20-dimethyl-15-oxo-8-oxa-16-azatetracyclo[16.3.1.1^{9,13}.0^{2,7}]tricosa-1(22),2(7),3,5,9,11,13(23),18,20-nonaen-17-yl]acetic acid]	0.08

Other lines, results leading:

EC50 [nM]	Structure (SMILES)
19	Cc1cc2cc(c1F)[C@H](CC(=O)O)NC(=O)[C@@H](n1cc(CCN3CC(F)C3)c(C(F)(F)F)cc1=O)c1cc(ccc1F)Oc1cccc(C(F)(F)F)c1-2 (relative stereo) [Example 28, [(14R*,17S)-12,19-difluoro-14-{5-[2-(3-fluoroazetidin-1-yl)ethyl]-2-oxo-4-(trifluoromethyl)pyridin-1-yl}-20-methyl-15-oxo-3-(trifluoromethyl)-8-oxa-16-azatetracyclo[16.3.1.1^{9,13}.0^{2,7}]tricosa-1(22),2(7),3,5,9,11,13(23),18,20-nonaen-17-yl]acetic acid]
38	Cc1cccc2c1-c1cc(c(F)c(C(F)(F)F)c1)[C@H](CC(=O)O)NC(=O)[C@@H](n1cc(CCN3CC(F)C3)c(C(F)(F)F)cc1=O)c1cc(cc(C(F)(F)F)c1)O2 (relative stereo) [Example 14, [(14R*,17S)-19-fluoro-14-{5-[2-(3-fluoroazetidin-1-yl)ethyl]-2-oxo-4-(trifluoromethyl)pyridin-1-yl}-3-methyl-15-oxo-11,20-bis(trifluoromethyl)-8-oxa-16-azatetracyclo[16.3.1.1^{9,13}.0^{2,7}]tricosa-1(22),2(7),3,5,9,11,13(23),18,20-nonaen-17-yl]acetic acid]
2	Cc1cccc2c1-c1cc(Cl)c(F)c(c1)[C@H](CC(=O)O)NC(=O)[C@@H](n1cc(CCN3CC(F)C3)c(C(F)(F)F)cc1=O)c1cc(ccc1F)O2 (relative stereo) [Example 25, [(14R*,17S)-20-chloro-12,19-difluoro-14-{5-[2-(3-fluoroazetidin-1-yl)ethyl]-2-oxo-4-(trifluoromethyl)pyridin-1-yl}-3-methyl-15-oxo-8-oxa-16-azatetracyclo[16.3.1.1^{9,13}.0^{2,7}]tricosa-1(22),2(7),3,5,9,11,13(23),18,20-nonaen-17-yl]acetic acid]
230	Cc1cccc2c1-c1cc(c(F)c(C(F)(F)F)c1)[C@H](CC(=O)O)NC(=O)[C@@H](n1cc(CCN3CC(F)C3)c(C(F)(F)F)cc1=O)c1cccc(c1)O2 (relative stereo) [Example 6, rel-2-((5S,8S)-14-fluoro-5-(5-(2-(3-fluoroazetidin-1-yl)ethyl)-2-oxo-4-(trifluoromethyl)pyridin-1(2H)-yl)-26-methyl-6-oxo-15-(trifluoromethyl)-3-oxa-7-aza-1,4(1,3),2(1,2)-tribenzenacyclooctaphane-8-yl)acetic acid]
